Measured values as given in patent publication US20110112145A1, “Salts Of Methyl 2-((R))-(3-Chlorophenyl)((R)-1-((S)-2-(Methylamino)-3((R)-tetrahydro-2H-Pyran-3-YL)Propylcarbamoyl)Piperidin-3-YL)Methoxy)Ethylcarbamate” (priority 2008, published 2011).

Legend:
[1] = Oral bioavailability in Beagle dogs; assay type: in vivo, male Beagle dogs; details: Dog
Method: Oral pharmacokinetic data in male Beagle dogs was obtained for a solution formulation of Compound D and capsule formulations of Compound A-form I, Compound B-form I, and Compound C-form I. Compound D was administered by oral gavage as a clear, colorless solution in water containing 2% DMSO (final pH=3.5), which was filtered, using a 0.22 μm MILLEX-GV filter, prior to administration. The above noted Compounds A, B, and C were each administered at a dose of 5 mg/kg in gelatin capsules (1.37 mL). Blood (50 μL) was sampled at the following time intervals: 0, 20, 40, 60, 120, 180, 240, 360, 480, 600, and 1440 min.
(§1) The concentration of each compound was quantified by LC/MS/MS analysis of an aliquot (25 μL blood+25 μL water) of these samples and the overall blood exposure reported as the Dose-Normalized Area Under the Curve (DNAUC) from a concentration versus time plot and expressed in the units kilogram hours per liter (kg·h/L). All oral bioavailabilities were calculated by dividing the DNAUC from an oral segment by the DNAUC from an i.v. segment and multiplying by 100.

[2] = Oral bioavailability in Sprague-Dawley rats; assay type: in vivo, male Sprague-Dawley rats; details: for DNAUC (Dose-Normalized Area Under the Curve, blood) / Oral Bioavailability (%): Rat; for Oral Bioavailability (%): oral DNAUC / i.v. DNAUC x 100
Method: Oral pharmacokinetic data in male Sprague-Dawley rats was obtained for a solution formulation of Compound D and a suspension formulation of micronized Compound E. Compound D was administered by oral gavage as a clear, colorless solution in a formulation with 0.5% methylcellulose in water at a dose of 10 mg/kg (5 mL of dose solution per kg). Blood was sampled at the following time intervals: 0, 5, 15, 30, 60, 120, 180, 240, 360, 480, and 1440 min. Compound E was administered as a suspension by gastric bolus in a formulation with 1% methylcellulose in water at a dose of 5 mg/kg (10 mL of dose solution per kg). Blood (50 μL) was sampled at the following time intervals: 0, 20, 40, 60, 120, 180, 240, 360, 480, 720, 960, 1200, and 1440 min.
as §1

[3] = oral, gelatin capsule, 5 mg/kg, form I of each compound
[4] = oral, gelatin capsule, 5 mg/kg, form I of each compound, oral DNAUC / i.v. DNAUC x 100
[5] = oral gavage, solution in 0.5% methylcellulose in water, 10 mg/kg
[6] = gastric bolus, suspension of micronized compound in 1% methylcellulose in water, 5 mg/kg

SMILES: CC(=O)N[C@@H](Cc1ccccc1)C(=O)O.CN[C@H](CNC(=O)N1CCC[C@@H]([C@@H](OCCNC(=O)OC)c2cccc(Cl)c2)C1)C[C@H]1CCCOC1 [Compound B]
- DNAUC (Dose-Normalized Area Under the Curve, blood) [1, 3]: 0.40 kg·h/L
- Oral Bioavailability (%) [1, 4]: 37%

SMILES: CN[C@H](CNC(=O)N1CCC[C@@H]([C@@H](OCCNC(=O)OC)c2cccc(Cl)c2)C1)C[C@H]1CCCOC1.O=C(O)/C=C/C(=O)O [Compound D, methyl 2-((R)-(3-chlorophenyl)((R)-1-((S)-2-(methylamino)-3-((R)-tetrahydro-2H-pyran-3-yl)propylcarbamoyl)piperidin-3-yl)methoxy)ethylcarbamate fumaric acid]
- DNAUC (Dose-Normalized Area Under the Curve, blood) ([1]; oral gavage, solution in water containing 2% DMSO (final pH=3.5), dose not given): 0.46 kg·h/L
- bioavailability ([1]; male, Beagle, whole blood, oral gavage, solution in water containing 2% DMSO (final pH=3.5), dose not given, oral DNAUC / i.v. DNAUC x 100): 43%
- DNAUC (Dose-Normalized Area Under the Curve, blood) [2, 5]: 0.048 kg·h/L
- Oral Bioavailability (%) [2, 5]: 37%

SMILES: CN[C@H](CNC(=O)N1CCC[C@@H]([C@@H](OCCNC(=O)OC)c2cccc(Cl)c2)C1)C[C@H]1CCCOC1.CN[C@H](CNC(=O)N1CCC[C@@H]([C@@H](OCCNC(=O)OC)c2cccc(Cl)c2)C1)C[C@H]1CCCOC1.O=C(O)c1cc2ccccc2c(Cc2c(O)c(C(=O)O)cc3ccccc23)c1O [Compound E, 2:1 pamoate salt of methyl 2-((R)-(3-chlorophenyl)((R)-1-((S)-2-(methylamino)-3-((R)-tetrahydro-2H-pyran-3-yl)propylcarbamoyl)piperidin-3-yl)methoxy)ethylcarbamate]
- DNAUC (Dose-Normalized Area Under the Curve, blood) [2, 6]: 0.0067 kg·h/L
- Oral Bioavailability (%) [2, 6]: 5%
- in vivo oral bioavailability ([2]; statement in the background section, species not given): low

SMILES: CN[C@H](CNC(=O)N1CCC[C@@H]([C@@H](OCCNC(=O)OC)c2cccc(Cl)c2)C1)C[C@H]1CCCOC1.CN[C@H](CNC(=O)N1CCC[C@@H]([C@@H](OCCNC(=O)OC)c2cccc(Cl)c2)C1)C[C@H]1CCCOC1.Cc1ccc(C(=O)O[C@@H](C(=O)O)[C@@H](OC(=O)c2ccc(C)cc2)C(=O)O)cc1 [Compound A]
- DNAUC (Dose-Normalized Area Under the Curve, blood) [1, 3]: 0.38 kg·h/L
- Oral Bioavailability (%) [1, 4]: 35%

SMILES: CN[C@H](CNC(=O)N1CCC[C@@H]([C@@H](OCCNC(=O)OC)c2cccc(Cl)c2)C1)C[C@H]1CCCOC1.O=C(O)C(=O)O [Compound C]
- DNAUC (Dose-Normalized Area Under the Curve, blood) [1, 3]: 0.64 kg·h/L
- Oral Bioavailability (%) [1, 4]: 59%
